Data published in ChEMBL document CHEMBL3885881, “DrugMatrix”.

Species: Rattus norvegicus
Assay: DrugMatrix - Regimen: Daily Repeat
Type: toxicity, organism-based, Sprague-Dawley
Set-up: regimen Daily Repeat, gender Male, age 6-8 weeks
Settings: in vivo, po, route oral GAVAGE, vehicle .5 % CMC; for BASOPHIL / EOSINOPHIL / ERYTHROCYTE COUNT / HEMATOCRIT / HEMOGLOBIN / LEUKOCYTE COUNT / LYMPHOCYTE / MEAN CORPUSCULAR HEMOGLOBIN / MEAN CORPUSCULAR HEMOGLOBIN CONCENTRATION / MEAN CORPUSCULAR VOLUME / MONOCYTE / NEUTROPHIL / PLATELET COUNT: tissue Blood; for ALANINE AMINOTRANSFERASE / ALBUMIN / ALKALINE PHOSPHATASE / ASPARTATE AMINOTRANSFERASE / BLOOD UREA NITROGEN / CHLORIDE / CHOLESTEROL / CREATINE PHOSPHOKINASE / CREATININE / GLUCOSE / PHOSPHORUS / POTASSIUM / SODIUM / TOTAL BILIRUBIN / TOTAL PROTEIN: tissue Plasma
[1] = 0 mg/kg, 72 h, dose level Control, time 3 day
[2] = 0 mg/kg, 120 h, dose level Control, time 5 day
[3] = 38 mg/kg, 72 h, dose level Low, time 3 day
[4] = 38 mg/kg, 120 h, dose level Low, time 5 day
[5] = 269 mg/kg, 72 h, dose level High, time 3 day
[6] = 269 mg/kg, 120 h, dose level High, time 5 day

## CCCNC(=O)NS(=O)(=O)c1ccc(Cl)cc1 [CHLORPROPAMIDE]
[1]
  BASOPHIL: 0%
  EOSINOPHIL: 0.33%
  ERYTHROCYTE COUNT: 6.2 x10E6/uL
  HEMATOCRIT: 38.08%
  HEMOGLOBIN: 14.92 G/DL
  LEUKOCYTE COUNT: 11.13 x10E3/uL
  LYMPHOCYTE: 76%
  MEAN CORPUSCULAR HEMOGLOBIN: 24.1 pg
  MEAN CORPUSCULAR HEMOGLOBIN CONCENTRATION: 39.17 G/DL
  MEAN CORPUSCULAR VOLUME: 61.48 fL
  MONOCYTE: 3.83%
  NEUTROPHIL: 19.83%
  PLATELET COUNT: 1327.5 x10E3/uL
  ALANINE AMINOTRANSFERASE: 40.17 u/L
  ALBUMIN: 4.07 G/DL
  ALKALINE PHOSPHATASE: 372 u/L
  ASPARTATE AMINOTRANSFERASE: 67.17 u/L
  BLOOD UREA NITROGEN: 18.83 mg/dL
  CHLORIDE: 105.17 MEQ/L
  CHOLESTEROL: 78.17 mg/dL
  CREATINE PHOSPHOKINASE: 149.17 u/L
  CREATININE: 0.57 mg/dL
  GLUCOSE: 185.17 mg/dL
  PHOSPHORUS: 11.43 mg/dL
  POTASSIUM: 6.78 MEQ/L
  SODIUM: 152.83 MEQ/L
  TOTAL BILIRUBIN: 0.4 mg/dL
  TOTAL PROTEIN: 6.87 G/DL
[2]
  BASOPHIL: 0%
  EOSINOPHIL: 0%
  ERYTHROCYTE COUNT: 6.05 x10E6/uL
  HEMATOCRIT: 36.55%
  HEMOGLOBIN: 14.7 G/DL
  LEUKOCYTE COUNT: 11.8 x10E3/uL
  LYMPHOCYTE: 86.83%
  MEAN CORPUSCULAR HEMOGLOBIN: 24.37 pg
  MEAN CORPUSCULAR HEMOGLOBIN CONCENTRATION: 40.32 G/DL
  MEAN CORPUSCULAR VOLUME: 60.47 fL
  MONOCYTE: 0.83%
  NEUTROPHIL: 12.33%
  PLATELET COUNT: 1177 x10E3/uL
  ALANINE AMINOTRANSFERASE: 41.83 u/L
  ALBUMIN: 3.75 G/DL
  ALKALINE PHOSPHATASE: 377.5 u/L
  ASPARTATE AMINOTRANSFERASE: 60.83 u/L
  BLOOD UREA NITROGEN: 16 mg/dL
  CHLORIDE: 105.67 MEQ/L
  CHOLESTEROL: 67.83 mg/dL
  CREATINE PHOSPHOKINASE: 120.33 u/L
  CREATININE: 0.6 mg/dL
  GLUCOSE: 167.67 mg/dL
  PHOSPHORUS: 10.03 mg/dL
  POTASSIUM: 6.68 MEQ/L
  SODIUM: 150.5 MEQ/L
  TOTAL BILIRUBIN: 0.57 mg/dL
  TOTAL PROTEIN: 6.25 G/DL
[3]
  BASOPHIL: 0%
  EOSINOPHIL: 0%
  ERYTHROCYTE COUNT: 5.72 x10E6/uL
  HEMATOCRIT: 35.8%
  HEMOGLOBIN: 13.93 G/DL
  LEUKOCYTE COUNT: 12.2 x10E3/uL
  LYMPHOCYTE: 81%
  MEAN CORPUSCULAR HEMOGLOBIN: 24.4 pg
  MEAN CORPUSCULAR HEMOGLOBIN CONCENTRATION: 38.9 G/DL
  MEAN CORPUSCULAR VOLUME: 62.73 fL
  MONOCYTE: 1.67%
  NEUTROPHIL: 17.33%
  PLATELET COUNT: 1327 x10E3/uL
  ALANINE AMINOTRANSFERASE: 39.33 u/L
  ALBUMIN: 3.73 G/DL
  ALKALINE PHOSPHATASE: 318.67 u/L
  ASPARTATE AMINOTRANSFERASE: 61.33 u/L
  BLOOD UREA NITROGEN: 14.33 mg/dL
  CHLORIDE: 105.67 MEQ/L
  CHOLESTEROL: 77.33 mg/dL
  CREATINE PHOSPHOKINASE: 126.33 u/L
  CREATININE: 0.57 mg/dL
  GLUCOSE: 180.33 mg/dL
  PHOSPHORUS: 11.27 mg/dL
  POTASSIUM: 6.7 MEQ/L
  SODIUM: 151.33 MEQ/L
  TOTAL BILIRUBIN: 0.33 mg/dL
  TOTAL PROTEIN: 6.07 G/DL
[4]
  BASOPHIL: 0%
  EOSINOPHIL: 0.33%
  ERYTHROCYTE COUNT: 6.28 x10E6/uL
  HEMATOCRIT: 38.47%
  HEMOGLOBIN: 15 G/DL
  LEUKOCYTE COUNT: 16.07 x10E3/uL
  LYMPHOCYTE: 86.67%
  MEAN CORPUSCULAR HEMOGLOBIN: 23.93 pg
  MEAN CORPUSCULAR HEMOGLOBIN CONCENTRATION: 39 G/DL
  MEAN CORPUSCULAR VOLUME: 61.4 fL
  MONOCYTE: 1.67%
  NEUTROPHIL: 11.33%
  PLATELET COUNT: 1190.33 x10E3/uL
  ALANINE AMINOTRANSFERASE: 35.67 u/L
  ALBUMIN: 3.7 G/DL
  ALKALINE PHOSPHATASE: 350 u/L
  ASPARTATE AMINOTRANSFERASE: 61.33 u/L
  BLOOD UREA NITROGEN: 14.33 mg/dL
  CHLORIDE: 106.33 MEQ/L
  CHOLESTEROL: 65 mg/dL
  CREATINE PHOSPHOKINASE: 140.67 u/L
  CREATININE: 0.6 mg/dL
  GLUCOSE: 178 mg/dL
  PHOSPHORUS: 11 mg/dL
  POTASSIUM: 6.43 MEQ/L
  SODIUM: 149.33 MEQ/L
  TOTAL BILIRUBIN: 0.37 mg/dL
  TOTAL PROTEIN: 6.1 G/DL
[5]
  BASOPHIL: 0%
  EOSINOPHIL: 0.33%
  ERYTHROCYTE COUNT: 6.04 x10E6/uL
  HEMATOCRIT: 37%
  HEMOGLOBIN: 14.33 G/DL
  LEUKOCYTE COUNT: 8.83 x10E3/uL
  LYMPHOCYTE: 83.67%
  MEAN CORPUSCULAR HEMOGLOBIN: 23.93 pg
  MEAN CORPUSCULAR HEMOGLOBIN CONCENTRATION: 38.77 G/DL
  MEAN CORPUSCULAR VOLUME: 61.6 fL
  MONOCYTE: 2%
  NEUTROPHIL: 14%
  PLATELET COUNT: 1429 x10E3/uL
  ALANINE AMINOTRANSFERASE: 26 u/L
  ALBUMIN: 3.83 G/DL
  ALKALINE PHOSPHATASE: 312 u/L
  ASPARTATE AMINOTRANSFERASE: 48.33 u/L
  BLOOD UREA NITROGEN: 17 mg/dL
  CHLORIDE: 109.33 MEQ/L
  CHOLESTEROL: 73 mg/dL
  CREATINE PHOSPHOKINASE: 142 u/L
  CREATININE: 0.53 mg/dL
  GLUCOSE: 163.33 mg/dL
  PHOSPHORUS: 9.83 mg/dL
  POTASSIUM: 5.8 MEQ/L
  SODIUM: 151.33 MEQ/L
  TOTAL BILIRUBIN: 0.17 mg/dL
  TOTAL PROTEIN: 6.3 G/DL
[6]
  BASOPHIL: 0%
  EOSINOPHIL: 0%
  ERYTHROCYTE COUNT: 5.62 x10E6/uL
  HEMATOCRIT: 33.9%
  HEMOGLOBIN: 14.07 G/DL
  LEUKOCYTE COUNT: 10.7 x10E3/uL
  LYMPHOCYTE: 76.67%
  MEAN CORPUSCULAR HEMOGLOBIN: 25.07 pg
  MEAN CORPUSCULAR HEMOGLOBIN CONCENTRATION: 41.53 G/DL
  MEAN CORPUSCULAR VOLUME: 60.37 fL
  MONOCYTE: 2.33%
  NEUTROPHIL: 21%
  PLATELET COUNT: 995.67 x10E3/uL
  ALANINE AMINOTRANSFERASE: 34.67 u/L
  ALBUMIN: 3.7 G/DL
  ALKALINE PHOSPHATASE: 315.33 u/L
  ASPARTATE AMINOTRANSFERASE: 55.33 u/L
  BLOOD UREA NITROGEN: 16.33 mg/dL
  CHLORIDE: 112.33 MEQ/L
  CHOLESTEROL: 71.33 mg/dL
  CREATINE PHOSPHOKINASE: 127.33 u/L
  CREATININE: 0.6 mg/dL
  GLUCOSE: 173.33 mg/dL
  PHOSPHORUS: 10.27 mg/dL
  POTASSIUM: 5.83 MEQ/L
  SODIUM: 155 MEQ/L
  TOTAL BILIRUBIN: 0.23 mg/dL
  TOTAL PROTEIN: 6.1 G/DL
